Source: US9321728B2, “Beta-alanine derivatives, pharmaceutically acceptable salts thereof, and pharmaceutical composition comprising same as active ingredient” (KOREA RESEARCH INSTITUTE OF CHEMICAL TECHNOLOGY, priority 2012, dated 2016)

Biological target: human DGAT1 (Homo sapiens (Human), UniProt O75907)
Experiment: Human DGAT1 enzyme inhibition test (phospholipid FlashPlate, [14C]decanoyl-CoA)
Format: biochemical
Settings: for IC50: lysate of Hep3B cells over-expressing human DGAT1 (5 μg/well), didecanoyl glycerol and [14C]decanoyl-CoA substrates; for in vitro inhibition activity with respect to DGAT1: verbal summary of Table 1
Description: The cells were treated with 200 μg/ml G-418(Sigma) once every three days for 4 weeks to over-express the human DGAT1, thereby obtaining a stabilized cell line. The over-expressed cells were put into a homogenization buffer [250 mM sucrose, 10 mM Tris-HCl (pH 7.4), 1 mM EDTA] and lysed by a homogenization apparatus. Then, centrifugation was performed with 600×g for 15 minutes to remove cell residue, and the obtained cells were used for an enzyme inhibition test. Human DGAT-1 and mouse DGAT activity was determined as follows: Assay buffer [20 mM HEPES (pH 7.4), 100 mM MgCl2, 0.04% BSA] containing 500 μM of enzyme substrate (didecanoyl glycerol) and 7.5 μM radiolabeled acyl-CoA substrate ([^14C]decanoyl-CoA) was added to each well of a phospholipid FlashPlate (PerkinElmer Life Sciences). A small aliquot of lysate (5 μg/well) or mouse liver microsome (0.1 mg/well) was added to start the reaction, which was allowed to proceed in a 20° C. bath for 1 hour. and maintained overnight at room temperature. Next day, measurement was performed by Wallac 1450 Microbeta Trilux Liquid Scintillation Counter and Luminometer (PerkinElmer Life Science). […] A calculation method of inhibition degree (%) is as follows.

Chain of human DGAT1 (O75907 whole entry): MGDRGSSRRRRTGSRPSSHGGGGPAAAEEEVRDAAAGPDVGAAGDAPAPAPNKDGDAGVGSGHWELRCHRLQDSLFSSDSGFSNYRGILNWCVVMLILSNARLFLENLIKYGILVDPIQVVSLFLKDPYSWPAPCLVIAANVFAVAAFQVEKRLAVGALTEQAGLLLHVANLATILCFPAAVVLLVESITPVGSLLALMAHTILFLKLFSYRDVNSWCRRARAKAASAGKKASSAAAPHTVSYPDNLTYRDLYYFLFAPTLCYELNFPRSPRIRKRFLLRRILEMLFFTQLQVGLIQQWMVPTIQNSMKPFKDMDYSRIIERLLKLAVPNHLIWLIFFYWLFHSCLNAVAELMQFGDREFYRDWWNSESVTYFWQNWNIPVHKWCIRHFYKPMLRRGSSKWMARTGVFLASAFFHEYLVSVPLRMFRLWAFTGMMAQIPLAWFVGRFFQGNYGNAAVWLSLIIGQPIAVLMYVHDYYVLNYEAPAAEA

| Structure (SMILES) | IC50 | in vitro inhibition activity with respect to DGAT1 |
| --- | --- | --- |
| O=C(O)C[C@H]1CC[C@H](c2ccc(NC(=O)CCNC(=O)c3nc(-c4ccccc4Cl)oc3C(F)(F)F)cc2)CC1 [Compound 79, sodium; trans-{4-[4-(3-{[2-(2-chlorophenyl)-5-trifluoromethyloxazole-4-carbonyl]amino}propionylamino)phenyl]cyclohexyl}acetate] | < 50 nM | – |
| O=C(O)C[C@H]1CC[C@H](c2ccc(NC(=O)CCNC(=O)c3ccc(-c4ccccc4Cl)cc3)cc2)CC1 [Compound 86, trans-[4-(4-{3-[(2′-chlorobiphenyl-4-carbonyl)amino]propionylamino}phenyl)cyclohexyl]acetic acid] | < 100 nM | – |
| O=C(O)C[C@H]1CC[C@H](c2ccc(NC(=O)CCNC(=O)c3nc(-c4ccccc4)oc3Cl)cc2)CC1 [Compound 87, trans-[4-(4-{3-[(5-chloro-2-phenyloxazole-4-carbonyl)amino]propionylamino}phenyl)cyclohexyl]acetic acid] | < 100 nM | – |
| CCc1ccc(-c2ccc(C(=O)NCCC(=O)Nc3ccc([C@H]4CC[C@H](CC(=O)O)CC4)cc3)cc2)cc1 [Compound 93, trans-[4-(4-{3-[(4′-ethylbiphenyl-4-carbonyl)amino]propionylamino}phenyl)cyclohexyl]acetic acid] | < 50 nM | good to excellent |
| O=C(O)C[C@H]1CC[C@H](c2ccc(NC(=O)CCNC(=O)c3ccc(-c4ccccc4)c(Cl)c3)cc2)CC1 [Compound 94, trans-[4-(4-{3-[(2-chlorobiphenyl-4-carbonyl)amino]propionylamino}phenyl)cyclohexyl]acetic acid] | < 50 nM | good to excellent |
| O=C(O)C[C@H]1CC[C@H](c2ccc(NC(=O)CCNC(=O)c3nc(-c4ccccc4Cl)oc3Cl)cc2)CC1 [Compound 95, trans-{4-[4-(3-{[5-chloro-2-(2-chlorophenyl)oxazole-4-carbonyl]amino}propionylamino)phenyl]cyclohexyl}acetic acid] | < 50 nM | good to excellent |
| O=C(O)C[C@H]1CC[C@H](c2ccc(NC(=O)CCNC(=O)c3nc(-c4c(Cl)cc(F)cc4Cl)oc3C(F)(F)F)cc2)CC1 [Compound 105] | < 50 nM | good to excellent |
